Common to all, as to assay: NCI anticancer screen, dose series, 48 h
Assay [1] has as its system TK-10 renal.
Assay [2] relates to DU-145 prostate.
Assay [3] relates to UACC-62 melanoma.
Assay [4] concerns COLO 205 colon.
In assay [5] the test system is HOP-62 NSCLC.
Assay [6] deals with MDA-MB-435.
Assay [7] relates to MALME-3M melanoma.
Assay [8] has as its system LOX IMVI melanoma.
Assay [9] has as its system SR leukemia.
Assay [10] has as its system SK-MEL-2 melanoma.

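How tested: cells in 96-well plates exposed to compound for 48 hours at five concentrations. Abbreviation: GI50, concentration required for 50% inhibition of growth. TGI denotes the concentration required for complete inhibition of growth.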

As to `CP(=O)(O)C(N)c1ccccc1` (stereo not drawn), the TGI in assay [1], in assay [2], in assay [3], in [4], in assay [5] and in assay [6] was over 100 µM throughout. Besides, the TGI in assay [7], in assay [8] and in assay [9] was over 100 µM each time.
On to `COc1cccc2c1C(=O)c1c(O)c3c(c(O)c1C2=O)CC(O)(C(C)=O)CC3O` (stereo not drawn), for which the TGI was determined as 16.9 µM in [10]; 14.4 µM in assay [3]; 24.7 µM in [4]; 11.3 µM in assay [5]; 12.7 µM in assay [7]; 8.7 µM in assay [8].
As to `Nc1ccn(CCCC(c2ccccc2)P(=O)(O)O)c(=O)n1` (stereo not drawn), the TGI in assay [1], in assay [10], in assay [3], in [4], in assay [5] and in assay [7] was over 100 µM each time. Besides, the TGI in assay [8] and in [9] was over 100 µM in each case.
In the case of `O=c1[nH]c(-c2ccc(Cl)cc2)cc2ccsc12`, the TGI is 8.22 µM in [1]; 6.68 µM in assay [2]; over 100 µM in assay [10]; over 100 µM in assay [3]; over 100 µM in assay [4]; over 100 µM in assay [5]. Further, the TGI in [7] was 5.8 µM; in assay [8] it was over 100 µM; in assay [9], 12.9 µM.
Take `CCc1n[nH]c(=O)n1N=C(c1ccccc1)c1ccccc1`: the TGI in assay [1], in assay [2], in assay [10], in assay [3], in assay [4] and in [5] was over 100 µM in each case. For the same molecule, the TGI in [6], in [7] and in assay [8] was over 100 µM throughout.
Turning to `C=CC(=C)CCC(Br)C(C)(C)Cl` (stereo not drawn), the TGI in assay [1], in assay [2], in assay [10], in assay [3], in [4] and in assay [5] was over 100 µM in each case. For the same molecule, the TGI in [6] and in assay [7] was over 100 µM each time.
As to `COc1cccc(/C=N/NC(=O)CN(C)C)c1O`, the TGI in assay [1], in assay [2], in assay [3], in [4], in assay [5] and in assay [6] was over 100 µM throughout. The TGI in assay [7] and in assay [8] was over 100 µM throughout.
In the case of `CNC(=O)c1cc(Oc2cccc3nc(NC(=O)Nc4ccc(F)cc4F)ccc23)ccn1`, the GI50 is over 50 µM in [10], 1.5 µM in assay [6], 1.68 µM in assay [8] and 0.41 µM in assay [9]. Besides, the TGI in [10], in assay [6], in assay [8] and in assay [9] was over 50 µM in each case.
On to `CC(=O)N1CCN(CCCCN2c3ccccc3Sc3cc(N=[N+]=[N-])ccc32)CC1`, for which the TGI in assay [1] was 31.3 µM; in [2], 32.1 µM; in assay [3], 9.21 µM; in [4] it was 29.7 µM; in assay [5] it was 27.4 µM; in [6], 29 µM. Further, the TGI in assay [7] is 33 µM; in [8], 30.9 µM; in [9], 26.5 µM.
Regarding `O=C1c2ccccc2C(=O)c2c(NCC3CO3)cccc21` (stereo not drawn), the TGI in assay [1] was over 100 µM; in assay [2], over 34.3 µM; in assay [10], 32 µM; in [3], over 45.9 µM; in [4] it was over 100 µM; in [5], over 100 µM. In addition, the TGI in [6] was 20 µM; in assay [7], over 100 µM; in assay [8], 5.38 µM.
As for `O=C1C(=Cc2ccc([N+](=O)[O-])o2)C(=O)N(CCc2ccccc2)S(=O)(=O)N1CCc1ccccc1`, the TGI in [1] is over 100 µM; in assay [10] it was 35.2 µM; in [3] it was 31 µM; in assay [4], 36.9 µM; in assay [7], 32 µM; in assay [8] it was 35 µM. In [9], this molecule yielded a TGI of 38.4 µM.
Take `Cc1ccc(S(=O)(=O)NCCCSCCO)cc1`: the TGI in assay [1], in assay [2], in assay [4], in [6], in assay [8] and in [9] was over 100 µM in each case.
`C[C@]12CCC(=O)C=C1CC[C@@H]1C2CC[C@@]2(C)C1CC[C@@H]2OC(=O)C12OC1CCC2=O` (stereo partly drawn): the TGI in assay [1] was 35.9 µM; in assay [10], 29.8 µM; in [3], 35.2 µM; in assay [4] it was 34.4 µM; in [5] it was 70 µM; in assay [7] it was 33.9 µM. Moreover, the TGI is 31.1 µM in assay [8] and 53.4 µM in [9].
Take `O=C1NC2OC(CO)C(O)C(O)C2O1` (stereo not drawn): the TGI in [1], in assay [10], in assay [3], in [4], in assay [5] and in assay [7] was over 100 µM each time. Besides, the TGI in assay [8] and in assay [9] was over 100 µM in each case.
Take `COc1ccc(OC)c(-c2cc(=O)c3cc4c(cc3[nH]2)OCO4)c1`: the TGI was over 83.3 µM in assay [1]; over 51.3 µM in [10]; over 100 µM in assay [3]; 7.93 µM in assay [4]; 67.7 µM in [5]; over 100 µM in assay [7]. The TGI in assay [8] is over 100 µM; in assay [9], over 27.9 µM.
As for `CCOC(=O)C1=C(O)c2ccc(OC)cc2C(=O)C1=O`, the TGI in assay [1], in [10], in [3], in assay [4], in assay [5] and in assay [7] was over 100 µM in each case. Besides, the TGI in [8] and in assay [9] was over 100 µM each time.

Values taken from PubChem BioAssay (NCI).
